Non-standard residues stand in square brackets, D forms with d. Residues, ends and D or L forms follow the SMILES beside them. dPhe(4-NH2) = Nc1ccc(C[C@@H](N)C(=O)O)cc1; dPhe(4-Cl) = N[C@H](Cc1ccc(Cl)cc1)C(=O)O; Phe(4-NH2) = Nc1ccc(C[C@H](N)C(=O)O)cc1; d2Nal = N[C@H](Cc1ccc2ccccc2c1)C(=O)O; Lys(iPr) = CC(C)NCCCC[C@H](N)C(=O)O; d3Pal = N[C@H](Cc1cccnc1)C(=O)O
What was measured:
[1] = Oral testosterone pharmacokinetics and serum metabolite profile (LC-MS/MS) in men with acyline-induced experimental hypogonadism, with and without dutasteride; type: in vivo, human; conditions: for CL/F: male, human, oral; for CL/F / AUC 0-24 h / Cmax / Tmax / t½: serum; for AUC0-24 h at T800, fold higher than with T200: T800 vs T200; for Average AUC0-24 h with dutasteride, % with respect to T alone: T200+D vs T200; for Average AUC0-24 h with dutasteride, % as compared to T alone: T800+D vs T800; for AUC0-24 h, fold higher as compared to T AUC0-24 h: human serum, 800 mg dose
Method: T emulsion in sesame oil, mixed with milk, was administered orally to human subjects with acyline-induced experimental hypogonadism. The blood samples were collected and the serum was isolated and stored in −80° C. Steroids and their metabolites were extracted from serum using protein precipitation followed by solid-phase extraction and analyzed by UPLC coupled with SCIEX 6500 MS/MS.
Clinical study design is discussed below. All subjects provided written, informed consent prior to any study procedures. The study was approved by the University of Washington (UW) Investigational Review Board Committee.
While study was conducted with 200, 400 and 800 mg T dose, only T200 and T800 were quantified. […] Samples were mixed for 1 min by vortex mixing, and then centrifuged for 10 min at 3500×g at 4° C. […] Samples (2 mL) were loaded onto the cartridges and flow through was discarded.
Data were acquired by Analyst 1.6 software.

UGT2B17 = molecular target: T1, UGT2B17 (Homo sapiens, UniProt O75795); conditions: scaled by absolute UGT2B abundance in the intestine
T1 sequence (O75795 24-530): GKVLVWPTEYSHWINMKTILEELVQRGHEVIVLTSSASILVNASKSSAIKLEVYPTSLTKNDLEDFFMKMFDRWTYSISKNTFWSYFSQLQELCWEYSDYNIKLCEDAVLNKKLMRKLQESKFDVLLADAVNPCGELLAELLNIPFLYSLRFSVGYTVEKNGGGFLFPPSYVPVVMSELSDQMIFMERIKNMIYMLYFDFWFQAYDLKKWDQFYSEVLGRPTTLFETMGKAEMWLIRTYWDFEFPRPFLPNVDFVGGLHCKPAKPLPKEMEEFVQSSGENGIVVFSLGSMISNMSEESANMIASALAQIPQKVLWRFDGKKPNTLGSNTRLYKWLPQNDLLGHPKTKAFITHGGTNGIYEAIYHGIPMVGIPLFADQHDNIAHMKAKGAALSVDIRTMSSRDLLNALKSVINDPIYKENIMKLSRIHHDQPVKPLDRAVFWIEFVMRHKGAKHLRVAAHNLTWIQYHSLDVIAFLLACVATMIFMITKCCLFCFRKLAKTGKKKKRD

[2] = oral T, humans; cited from earlier work
5-AR type 1 and 2 = assay: Dutasteride co-treatment with T in human hepatocyte culture; conditions: for Effect of dutasteride co-treatment on metabolite formation from T: p<0.01 for decreases
Method: (§1) A targeted metabolomics study was performed on previously collected samples from an oral T pharmacokinetics (PK) study (800 mg). T and its primary and secondary metabolites in serum were quantified, and PK data of these steroids were analyzed using the non-compartmental method. […] Additionally, T-metabolism study was also performed in human hepatocytes for 1 h. The media and cell pellets were collected for subsequent metabolomics and proteomics analyses, respectively. Effect of dutasteride treatment on androgen metabolome was also investigated, both in vivo and in vitro.

human hepatocytes = assay: T metabolism in primary human hepatocytes (metabolite formation); conditions: for In vitro formation from T: primary human hepatocyte
Method: as §1

UGT2B7 = UGT2B7 (Homo sapiens, UniProt P16662)
UGT2B15 = UGT2B15 (Homo sapiens, UniProt P54855)
Method: Oxazepam was used as a probe substrate for UGT2B15 activity by measuring oxazepam glucuronide formation (m/z 463.3→287.1, 269.1; DP 70; CE 20) with 10 μM oxazepam.

T production = conditions: normal men, single injection 300 μg/kg subcutaneous; cited from earlier work
[3] = T200 + D (200 mg oral T with dutasteride)
[4] = T800 + D (800 mg oral T with dutasteride)

UGT2B15, sequence (P54855 24-530): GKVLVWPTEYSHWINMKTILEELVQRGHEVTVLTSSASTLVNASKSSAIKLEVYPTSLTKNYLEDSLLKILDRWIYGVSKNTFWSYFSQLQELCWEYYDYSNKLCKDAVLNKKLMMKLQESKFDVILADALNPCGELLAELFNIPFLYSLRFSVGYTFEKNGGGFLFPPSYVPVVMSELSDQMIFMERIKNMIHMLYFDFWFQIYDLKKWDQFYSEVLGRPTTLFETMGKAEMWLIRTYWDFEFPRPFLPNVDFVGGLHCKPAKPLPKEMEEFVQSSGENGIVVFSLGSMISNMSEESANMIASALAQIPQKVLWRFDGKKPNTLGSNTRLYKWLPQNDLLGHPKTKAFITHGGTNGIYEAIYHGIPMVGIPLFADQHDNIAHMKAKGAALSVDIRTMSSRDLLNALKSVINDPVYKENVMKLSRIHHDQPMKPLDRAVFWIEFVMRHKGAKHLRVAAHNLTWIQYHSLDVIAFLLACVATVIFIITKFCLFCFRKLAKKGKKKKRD
UGT2B7, sequence (P16662 24-529): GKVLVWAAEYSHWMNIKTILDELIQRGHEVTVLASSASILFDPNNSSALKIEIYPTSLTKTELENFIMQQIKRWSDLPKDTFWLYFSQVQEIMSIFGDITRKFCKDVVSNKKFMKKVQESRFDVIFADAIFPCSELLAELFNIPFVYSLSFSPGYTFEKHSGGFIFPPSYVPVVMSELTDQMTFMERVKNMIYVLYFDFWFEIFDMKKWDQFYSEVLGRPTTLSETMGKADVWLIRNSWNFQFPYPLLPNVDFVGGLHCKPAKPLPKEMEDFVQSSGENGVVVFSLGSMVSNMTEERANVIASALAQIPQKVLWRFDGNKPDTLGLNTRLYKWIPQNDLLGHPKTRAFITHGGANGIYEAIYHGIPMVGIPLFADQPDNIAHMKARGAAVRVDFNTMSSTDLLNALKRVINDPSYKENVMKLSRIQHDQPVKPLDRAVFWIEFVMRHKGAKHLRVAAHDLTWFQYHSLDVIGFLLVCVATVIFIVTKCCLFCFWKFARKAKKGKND

| SMILES | AUC 0-24 h ([1]; T200) [µM·h] | t½ ([1]; T200 (200 mg oral T)) [h] | AUC 0-24 h ([1]; T200 + D) [µM·h] | t½ [1, 3] [h] | AUC 0-24 h ([1]; T800) [µM·h] | t½ ([1]; T800 (800 mg oral T)) [h] | AUC 0-24 h ([1]; T800 + D) [µM·h] | t½ [1, 4] [h] | Absolute level in pooled serum, fold of baseline eugonadal state ([1]; T200) [fold] | Average serum AUC0-24 h ([1]; T200) | Absolute level in pooled serum, fold of baseline eugonadal state ([1]; T800) [fold] | Effect of dutasteride co-treatment on metabolite formation from T (5-AR type 1 and 2) | other results |
| --- | --- | --- | --- | --- | --- | --- | --- | --- | --- | --- | --- | --- | --- |
| C[C@]12CC[C@H]3[C@@H](CCC4=CC(=O)CC[C@@]43C)[C@@H]1CC[C@@H]2O [T, Testosterone, reference compound] | 0.0816 | 12.0 | 0.0847 | 7.0 | 0.1689 | 5.3 | 0.2938 | 5.7 | – | – | – | – | Change in serum T levels with dutasteride ([1]; 200 mg T dose): no significant increase; Increase in circulating T concentrations ([1]; 4-fold increase in dose (200 to 800 mg)): 2 fold; CL/F ([1]; 200 mg, T200): 106000 mL/min; CL/F ([1]; 800 mg, T800): 259000 mL/min; CL/F ([1]; T200 + D): 120000 mL/min; CL/F ([1]; T800 + D): 147000 mL/min; Cmax ([1]; T200): 6 nM; Tmax ([1]; T200): 4 h; Cmax ([1]; T200 + D): 8.8 nM; Cmax ([1]; T800): 16.8 nM; Cmax ([1]; T800 + D): 33 nM; Tmax ([1]; T800 + D): 2 h; Contribution of UGT2B17 to intestinal glucuronidation (UGT2B17): 100%; Oral bioavailability [2]: 2-8% |
| C[C@]12C=CC(=O)N[C@@H]1CC[C@@H]1[C@@H]2CC[C@]2(C)[C@@H](C(=O)Nc3cc(C(F)(F)F)ccc3C(F)(F)F)CC[C@@H]12 [dutasteride, reference compound] | – | – | – | – | – | – | – | – | – | – | – | – | Inhibition of 5-AR type 1 and 2 mediated metabolism of T (5-AR type 1 and 2; co-treatment with T): complete inhibition |
| C[C@]12CCC(=O)C[C@@H]1CC[C@@H]1[C@@H]2CC[C@]2(C)[C@@H](O)CC[C@@H]12 [DHT, 5α-Dihydrotestosterone] | 0.0265 | 17.6 | 0.0096 | 24.0 | 0.0874 | 6.9 | 0.0266 | 17.9 | 0.6 | 26.5 nmol/L-h | 2.2 | significant decreases | Average AUC0-24 h with dutasteride, % lower than T alone ([1]; T200): 64%; Average AUC0-24 h with dutasteride, % lower than T alone ([1]; T800): 70%; AUC0-24 h at T800, fold higher than with T200 [1]: 3.3 fold; Cmax ([1]; T200): 2 nM; Tmax ([1]; T200): 2 h; Cmax ([1]; T200 + D): 0.8 nM; Tmax ([1]; T200 + D): 4 h; Cmax ([1]; T800): 8.4 nM; Tmax ([1]; T800): 2 h; Cmax ([1]; T800 + D): 1.8 nM; Tmax ([1]; T800 + D): 4 h |
| C[C@]12CC[C@@H](O[C@@H]3O[C@H](C(=O)O)[C@@H](O)[C@H](O)[C@H]3O)C[C@H]1CC[C@@H]1[C@@H]2CC[C@]2(C)C(=O)CC[C@@H]12 [EtioG, Etiocholanolone glucuronide] | 2.1604 | 5.2 | – | 10.5 | 14.9815 | 7.8 | 27.0917 | 9.9 | 13 | 2160 nmol/L-h | 39.5 | – | Average AUC0-24 h with dutasteride, % with respect to T alone [1]: 151%; Average AUC0-24 h with dutasteride, % as compared to T alone [1]: 180%; AUC0-24 h, fold higher as compared to T AUC0-24 h [1]: 87 fold |
| C[C@]12CC[C@H]3[C@@H](C[C@@H](O)C4=CC(=O)CC[C@@]43C)[C@@H]1CC[C@@H]2O [6β-OH-T, 6β-hydroxytestosterone] | – | – | – | – | – | – | – | – | – | – | – | significant decreases | – |
| C[C@]12CCC(=O)C[C@@H]1CC[C@@H]1[C@@H]2CC[C@]2(C)[C@@H](O[C@@H]3O[C@H](C(=O)O)[C@@H](O)[C@H](O)[C@H]3O)CC[C@@H]12 [DHTG, DHT-glucuronide] | – | – | – | – | – | – | – | – | 7.5 | – | 40.6 | – | – |
| C[C@]12CC[C@@H](O[C@@H]3O[C@H](C(=O)O)[C@@H](O)[C@H](O)[C@H]3O)C[C@@H]1CC[C@@H]1[C@@H]2CC[C@]2(C)C(=O)CC[C@@H]12 [AG, Androsterone glucuronide] | 12.1108 | 4.9 | – | 4.5 | 65.4278 | 4.5 | 14.8677 | 6.3 | 9.5 | 12,111 nmol/L-h | 29.7 | significant decreases | Average AUC0-24 h with dutasteride, % with respect to T alone [1]: 21%; Average AUC0-24 h with dutasteride, % as compared to T alone [1]: 22%; AUC0-24 h, fold higher as compared to T AUC0-24 h [1]: 389 fold |
| C[C@]12CC[C@@H](O)C[C@@H]1CC[C@@H]1[C@@H]2CC[C@]2(C)C(=O)CC[C@@H]12 [A, Androsterone] | – | – | – | – | – | – | – | – | – | – | – | – | Circulating level, % lower in dutasteride treated samples vs T alone ([1]; T200+D): 30%; Circulating level, % lower in dutasteride treated samples vs T alone ([1]; T800+D): 87% |
| C[C@]12CCC(=O)C=C1CC[C@@H]1[C@@H]2CC[C@]2(C)C(=O)CC[C@@H]12 [AED, Androstenedione] | 0.3737 | 12.7 | 1.6349 | 8.3 | 1.5518 | 6.8 | 10.8444 | 5.2 | 2.3 | 373.7 nmol/L-h | 14.9 | No significant changes | Circulating level, fold higher with dutasteride vs T alone ([1]; T200+D and T800+D): 5.7 fold; AUC0-24 h at T800, fold higher than with T200 [1]: 4.2 fold; Cmax ([1]; T200): 66.3 nM; Tmax ([1]; T200): 2 h; Cmax ([1]; T200 + D): 200 nM; Tmax ([1]; T200 + D): 2 h; Cmax ([1]; T800): 280 nM; Tmax ([1]; T800): 1 h; Cmax ([1]; T800 + D): 2300 nM; Tmax ([1]; T800 + D): 2 h; In vitro formation from T (human hepatocytes): 46% |
| Cc1ccc(NC(=O)c2ccc(CN3CCN(C)CC3)cc2)cc1Nc1nccc(-c2cccnc2)n1 [imatinib] | – | – | – | – | – | – | – | – | – | – | – | – | Inhibition of naloxone (UGT2B7) glucuronidation (UGT2B7): No significant inhibition; Inhibition of oxazepam (UGT2B15) glucuronidation (UGT2B15): No significant inhibition |
| C[C@]12CC[C@H]3[C@@H](CCC4=CC(=O)CC[C@@]43C)[C@@H]1CC[C@@H]2O[C@@H]1O[C@H](C(=O)O)[C@@H](O)[C@H](O)[C@H]1O [TG, Testosterone glucuronide] | 0.8572 | 4.4 | 0.3734 | 4.3 | 14.163 | 3.6 | 8.5897 | 2.7 | 78 | 857.2 nmol/L-h | 277 | No significant changes | Average AUC0-24 h with dutasteride, % with respect to T alone [1]: 43%; Average AUC0-24 h with dutasteride, % as compared to T alone [1]: 60%; Proportion of total T-related species in circulation ([1]; T dosed orally to men with experimental hypogonadism): 13%; Increase in TG/T ratio of dose-normalized AUC0-24 h ([1]; changing dose from 200 to 800 mg): 9.3 fold; AUC0-24 h, fold higher as compared to T AUC0-24 h [1]: 85 fold; Level in hepatocyte media, fold lower than AG (human hepatocytes; human hepatocytes, T-treated): 3.7 fold; In vitro formation from T (human hepatocytes): 42% |
| CC(=O)Nc1ccc(C[C@H](NC(=O)[C@H](CO)NC(=O)[C@@H](Cc2cccnc2)NC(=O)[C@@H](Cc2ccc(Cl)cc2)NC(=O)[C@@H](Cc2ccc3ccccc3c2)NC(C)=O)C(=O)N[C@H](Cc2ccc(NC(C)=O)cc2)C(=O)N[C@@H](CC(C)C)C(=O)N[C@@H](CCCCNC(C)C)C(=O)N2CCC[C@H]2C(=O)N[C@H](C)C(N)=O)cc1 [acyline] (Ac-[d2Nal][dPhe(4-Cl)][d3Pal]S[Phe(4-NH2)](Ac)[dPhe(4-NH2)](Ac)L[Lys(iPr)]P[dA]-NH2) | – | – | – | – | – | – | – | – | – | – | – | – | Duration of suppression of T production (T production): ≥ 15 days |

From patent publication US11131677B2 (University of Washington, priority 2018, dated 2021)
